Source: paper PMC3982558, “Influence of the π-coordinated arene on the anticancer activity of ruthenium(II) carbohydrate organometallic complexes” (Frontiers in Chemistry, 2013)

What follows are substances tested against T1, cathepsin B (Bos taurus, UniProt P07688) (assay: colorimetric cathepsin B assay (Na-CBZ-L-lysine p-nitrophenyl ester), […] h preincubation). Conditions: read-out: IC50 values/μM Cat B.
T1 construct: gene CTSB; Crude bovine spleen cathepsin B (Sigma C6286)
Assay type: biochemical
With “dichlorido(η^6-p-cymene)(3,5,6-bicyclophosphite-1,2-O-isopropylidene-α-D-glucofuranose)ruthenium(II) [1a]” the IC50 was 1.5 ± 0.2 µM.
“Dichlorido(η^6-biphenyl)(3,5,6-bicyclophosphite-1,2-O-cyclohexylidene-α-D-glucofuranose)ruthenium(II) [compound 6]” showed an IC50 of 8 ± 0.4 µM.
For “dichlorido(η^6-p-cymene)(3,5,6-bicyclophosphite-1,2-O-cyclohexylidene-α-D-glucofuranoside)ruthenium(II) [1b]”, the IC50 was 4 ± 0.6 µM.
